# Reference: patent US9493446B2, “Orexin receptor antagonists which are [ortho bi-(hetero-)aryl]-[2-(meta bi-(hetero-)aryl)-pyrrolidin-1-yl]-methanone derivatives” (Actelion Pharmaceuticals Ltd, priority 2012, dated 2016)
# Read-outs that look alike come from different tables or passages of the source.
# Columns and labels:
# human orexin-2 receptor = human orexin-2 receptor (Homo sapiens (Human), UniProt O43614); test: Intracellular calcium measurement (FLIPR), CHO cells expressing human orexin-2 receptor, 3 nM orexin-A; type: cell-based; conditions: read-out: IC50 OX2
# human orexin-2 receptor, sequence (O43614 whole entry): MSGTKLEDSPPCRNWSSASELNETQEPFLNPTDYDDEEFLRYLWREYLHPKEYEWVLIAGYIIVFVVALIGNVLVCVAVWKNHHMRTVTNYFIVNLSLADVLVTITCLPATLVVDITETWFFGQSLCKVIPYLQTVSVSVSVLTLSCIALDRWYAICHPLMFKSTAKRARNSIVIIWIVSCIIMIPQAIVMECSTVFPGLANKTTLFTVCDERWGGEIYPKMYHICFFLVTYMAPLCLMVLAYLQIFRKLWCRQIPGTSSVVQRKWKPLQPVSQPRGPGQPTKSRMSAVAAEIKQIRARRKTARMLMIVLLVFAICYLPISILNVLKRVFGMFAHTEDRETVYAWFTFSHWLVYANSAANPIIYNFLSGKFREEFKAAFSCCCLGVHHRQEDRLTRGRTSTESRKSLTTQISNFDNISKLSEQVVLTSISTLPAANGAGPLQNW
# How it was run: (§1)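 HBSS buffer with 0.1% BSA, NaHCO3 and 20 mM HEPES carries both compounds and agonist. Dye: fluo-4 AM (3 μM) with 5 mM probenecid. Compound exposure 120 min; peak signal scored against uninhibited orexin-A response.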
# orexin-1 = orexin-1 (Homo sapiens (Human), UniProt O43613); test: Intracellular calcium measurement (FLIPR), CHO cells expressing human orexin-1 receptor, 3 nM orexin-A; type: cell-based; conditions: CHO cells expressing human orexin-1 receptor, FLIPR, 3 nM orexin-A; geometric mean if determined several times; read-out: IC50 OX1
# orexin-1, sequence (O43613 whole entry): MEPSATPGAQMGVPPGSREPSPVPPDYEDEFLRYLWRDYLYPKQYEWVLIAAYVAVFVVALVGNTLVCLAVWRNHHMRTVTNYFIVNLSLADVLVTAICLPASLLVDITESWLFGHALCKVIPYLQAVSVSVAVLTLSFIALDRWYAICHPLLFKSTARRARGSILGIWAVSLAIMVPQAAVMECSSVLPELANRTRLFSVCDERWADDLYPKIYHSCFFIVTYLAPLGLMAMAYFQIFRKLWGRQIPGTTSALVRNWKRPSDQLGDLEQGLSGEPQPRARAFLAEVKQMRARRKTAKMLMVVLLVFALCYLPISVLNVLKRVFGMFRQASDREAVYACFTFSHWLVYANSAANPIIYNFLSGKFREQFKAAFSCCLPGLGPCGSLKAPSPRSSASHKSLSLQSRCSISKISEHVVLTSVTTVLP
# How it was run: as §1
# [1] = CHO cells expressing human orexin-2 receptor, FLIPR, 3 nM orexin-A, geometric mean if determined several times
Structure (SMILES),IC50 (human orexin-2 receptor; [1]) [nM],IC50 (orexin-1) [nM],IC50 (human orexin-2 receptor) [nM]
"Cc1ccc(-n2nccn2)c(C(=O)N2CCC[C@H]2c2nc(-c3cc(C)c(C)cn3)no2)c1 [compound 62, {(S)-2-[3-(4,5-Dimethyl-pyridin-2-yl)-[1,2,4]oxadiazol-5-yl]-pyrrolidin-1-yl}-(5-methyl-2-[1,2,3]triazol-2-yl-phenyl)-methanone]",242,> 1630,
"Cc1ccc(-n2nccn2)c(C(=O)N2CCC[C@H]2c2nc(-c3ccc(C)c(C)n3)no2)c1 [compound 63, {(S)-2-[3-(5,6-Dimethyl-pyridin-2-yl)-[1,2,4]oxadiazol-5-yl]-pyrrolidin-1-yl}-(5-methyl-2-[1,2,3]triazol-2-yl-phenyl)-methanone]",361,1420,
"COc1cc(O)ccc1-c1noc([C@@H]2CCCN2C(=O)c2cc(C)ccc2-n2nccn2)n1 [compound 64, {(S)-2-[3-(4-Hydroxy-2-methoxy-phenyl)-[1,2,4]oxadiazol-5-yl]-pyrrolidin-1-yl}-(5-methyl-2-[1,2,3]triazol-2-yl-phenyl)-methanone]",52,198,
"Cc1ccc(-n2nccn2)c(C(=O)N2CCC[C@H]2c2nc(-c3cc(C)nc(C)c3)no2)c1 [compound 65, {(S)-2-[3-(2,6-Dimethyl-pyridin-4-yl)-[1,2,4]oxadiazol-5-yl]-pyrrolidin-1-yl}-(5-methyl-2-[1,2,3]triazol-2-yl-phenyl)-methanone]",375,758,
"COc1cc(-c2noc([C@@H]3CCCN3C(=O)c3cc(C)ccc3-n3nccn3)n2)cc(C)n1 [compound 66, {(S)-2-[3-(2-Methoxy-6-methyl-pyridin-4-yl)-[1,2,4]oxadiazol-5-yl]-pyrrolidin-1-yl}-(5-methyl-2-[1,2,3]triazol-2-yl-phenyl)-methanone]",155,302,
"Cc1cc(CC(C)C)nc(-c2noc([C@@H]3CCCN3C(=O)c3cc(C)ccc3-n3nccn3)n2)c1 [compound 67, {(S)-2-[3-(6-Isobutyl-4-methyl-pyridin-2-yl)-[1,2,4]oxadiazol-5-yl]-pyrrolidin-1-yl}-(5-methyl-2-[1,2,3]triazol-2-yl-phenyl)-methanone]",333,1250,
"Cc1ccc(-n2nccn2)c(C(=O)N2CCC[C@H]2c2nc(-c3ccnc(C)c3)no2)c1 [compound 68, {(S)-2-[3-(2-Methyl-pyridin-4-yl)-[1,2,4]oxadiazol-5-yl]-pyrrolidin-1-yl}-(5-methyl-2-[1,2,3]triazol-2-yl-phenyl)-methanone]",915,6670,
"COc1ccc(F)c(-c2noc([C@@H]3CCCN3C(=O)c3cc(C)ccc3-n3nccn3)n2)c1F [compound 69, {(S)-2-[3-(2,6-Difluoro-3-methoxy-phenyl)-[1,2,4]oxadiazol-5-yl]-pyrrolidin-1-yl}-(5-methyl-2-[1,2,3]triazol-2-yl-phenyl)-methanone]",163,1840,
COc1cccc(-c2noc([C@@H]3CCCN3C(=O)c3cc(C)ccc3-n3nccn3)n2)c1Cl [compound 70],,623,53
"Cc1ccc(-n2nccn2)c(C(=O)N2CCC[C@H]2c2nc(-c3cccnc3OC(C)C)no2)c1 [compound 71, {(S)-2-[3-(2-Isopropoxy-pyridin-3-yl)-[1,2,4]oxadiazol-5-yl]-pyrrolidin-1-yl}-(5-methyl-2-[1,2,3]triazol-2-yl-phenyl)-methanone]",22,8,
"COc1cccc(F)c1-c1noc([C@@H]2CCCN2C(=O)c2cc(C)ccc2-n2nccn2)n1 [compound 72, {(S)-2-[3-(2-Fluoro-6-methoxy-phenyl)-[1,2,4]oxadiazol-5-yl]-pyrrolidin-1-yl}-(5-methyl-2-[1,2,3]triazol-2-yl-phenyl)-methanone]",57,901,
Cc1ccc(-n2nccn2)c(C(=O)N2CCC[C@H]2c2nc(-c3ccnc(Cl)c3)no2)c1 [compound 73],1160,3480,
"Cc1ccc(-n2nccn2)c(C(=O)N2CCC[C@H]2c2nc(-c3cccc4c3ccn4C)no2)c1 [compound 74, {(S)-2-[3-(1-Methyl-1H-indol-4-yl)-[1,2,4]oxadiazol-5-yl]-pyrrolidin-1-yl}-(5-methyl-2-[1,2,3]triazol-2-yl-phenyl)-methanone]",6,254,
"Cc1ccc(-n2nccn2)c(C(=O)N2CCC[C@H]2c2nc(-c3ccnc4[nH]ccc34)no2)c1 [compound 75, (5-Methyl-2-[1,2,3]triazol-2-yl-phenyl)-{(S)-2-[3-(1H-pyrrolo[2,3-b]pyridin-4-yl)-[1,2,4]oxadiazol-5-yl]-pyrrolidin-1-yl}-methanone]",261,1570,
"Cc1ccc(-n2nccn2)c(C(=O)N2CCC[C@H]2c2nc(-c3c(C)cccc3F)no2)c1 [compound 76, {(S)-2-[3-(2-Fluoro-6-methyl-phenyl)-[1,2,4]oxadiazol-5-yl]-pyrrolidin-1-yl}-(5-methyl-2-[1,2,3]triazol-2-yl-phenyl)-methanone]",40,901,
"Cc1ccc(-n2nccn2)c(C(=O)N2CCC[C@H]2c2nc(-c3cccc4ccn(C)c34)no2)c1 [compound 77, {(S)-2-[3-(1-Methyl-1H-indol-7-yl)-[1,2,4]oxadiazol-5-yl]-pyrrolidin-1-yl}-(5-methyl-2-[1,2,3]triazol-2-yl-phenyl)-methanone]",8,52,
"Cc1ccc(-n2nccn2)c(C(=O)N2CCC[C@H]2c2nc(-c3cccnc3C)no2)c1 [compound 78, {(S)-2-[3-(2-Methyl-pyridin-3-yl)-[1,2,4]oxadiazol-5-yl]-pyrrolidin-1-yl}-(5-methyl-2-[1,2,3]triazol-2-yl-phenyl)-methanone]",29,2290,
"Cc1ccc(-n2nccn2)c(C(=O)N2CCC[C@H]2c2nc(-c3c[nH]c4cccc(C)c34)no2)c1 [compound 79, {(S)-2-[3-(4-Methyl-1H-indol-3-yl)-[1,2,4]oxadiazol-5-yl]-pyrrolidin-1-yl}-(5-methyl-2-[1,2,3]triazol-2-yl-phenyl)-methanone]",1070,2750,
"Cc1ccc(-n2nccn2)c(C(=O)N2CCC[C@H]2c2nc(-c3ccc(C)c(C)c3)no2)c1 [compound 80, {(S)-2-[3-(3,4-Dimethyl-phenyl)-[1,2,4]oxadiazol-5-yl]-pyrrolidin-1-yl}-(5-methyl-2-[1,2,3]triazol-2-yl-phenyl)-methanone]",16,252,
"Cc1ccc(-c2noc([C@@H]3CCCN3C(=O)c3cc(C)ccc3-n3nccn3)n2)c(C)c1 [compound 81, {(S)-2-[3-(2,4-Dimethyl-phenyl)-[1,2,4]oxadiazol-5-yl]-pyrrolidin-1-yl}-(5-methyl-2-[1,2,3]triazol-2-yl-phenyl)-methanone]",19,309,
"COc1ccc(-c2noc([C@@H]3CCCN3C(=O)c3cc(C)ccc3-n3nccn3)n2)cc1OC [compound 82, {(S)-2-[3-(3,4-Dimethoxy-phenyl)-[1,2,4]oxadiazol-5-yl]-pyrrolidin-1-yl}-(5-methyl-2-[1,2,3]triazol-2-yl-phenyl)-methanone]",131,874,
"Cc1ccc(-n2nccn2)c(C(=O)N2CCC[C@H]2c2nc(-c3ncccc3C)no2)c1 [compound 83, {(S)-2-[3-(3-Methyl-pyridin-2-yl)-[1,2,4]oxadiazol-5-yl]-pyrrolidin-1-yl}-(5-methyl-2-[1,2,3]triazol-2-yl-phenyl)-methanone]",302,3470,
